According to BindingDB's records for doi:10.1007/s002100000340 (University of Illinois At Chicago, 2001):

Columns and labels:
Adenosine receptor A3 = target: T1, Adenosine receptor A3 (Gallus gallus, UniProt A0A8V1ACC1)
T1 sequence (A0A8V1ACC1 whole entry): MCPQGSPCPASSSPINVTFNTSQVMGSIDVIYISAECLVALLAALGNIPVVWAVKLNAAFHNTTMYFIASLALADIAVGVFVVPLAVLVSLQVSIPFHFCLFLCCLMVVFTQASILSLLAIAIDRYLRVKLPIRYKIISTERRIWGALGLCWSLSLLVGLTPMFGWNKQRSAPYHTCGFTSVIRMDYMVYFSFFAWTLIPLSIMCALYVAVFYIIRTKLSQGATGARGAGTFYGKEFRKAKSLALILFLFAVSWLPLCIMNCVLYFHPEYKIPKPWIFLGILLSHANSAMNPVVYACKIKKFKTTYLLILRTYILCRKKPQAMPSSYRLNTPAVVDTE

Adenosine receptor A1 = target: T2, Adenosine receptor A1 (Gallus gallus, UniProt P49892)
T2 sequence (P49892 whole entry): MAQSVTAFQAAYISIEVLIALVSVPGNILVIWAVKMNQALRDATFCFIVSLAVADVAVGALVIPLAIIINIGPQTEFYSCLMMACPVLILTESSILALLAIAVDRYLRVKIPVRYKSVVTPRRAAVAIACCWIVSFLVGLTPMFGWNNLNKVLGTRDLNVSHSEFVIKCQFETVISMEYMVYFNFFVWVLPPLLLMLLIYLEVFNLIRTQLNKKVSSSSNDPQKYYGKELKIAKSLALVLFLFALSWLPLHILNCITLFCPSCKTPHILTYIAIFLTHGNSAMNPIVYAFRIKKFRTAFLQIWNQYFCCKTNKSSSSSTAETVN

| Structure (SMILES) | Ki (Adenosine receptor A3) [nM] | Ki (Adenosine receptor A1) [nM] |
| --- | --- | --- |
| CCCn1c(=O)c2[nH]c(-c3ccc(C=CC(=O)O)cc3)nc2n(CCC)c1=O [NSC_129447] | 36.6 | 167 |
| Cc1ccc(-c2oc3ccc(Cl)cc3c(=O)c2Cl)c(OC(C)C)c1 | 3310 | – |
| CCCn1c(=O)c2nc[nH]c2n(CCC)c1=O | 53.3 | 11.2 |
| CCOC(=O)C1=C(c2ccccc2)N=C(C)C(C(=O)OCC)C1/C=C/c1ccccc1 (stereo unspecified) | 990 | 3430 |
| OC[C@H]1O[C@@H](n2cnc3c(NC4CCCCC4)ncnc32)[C@H](O)[C@@H]1O [CHA] | 17.1 | 1.66 |
| OCC1OC(n2cnc3c(NC4CCCC4)nc(Cl)nc32)C(O)C1O (stereo unspecified) [2-(2-Chloro-6-cyclopentylamino-purin-9-yl)-5-hydroxymethyl-tetrahydro-furan-3,4-diol] | 6.82 | 4.01 |
| CCNC(=O)[C@H]1O[C@@H](n2cnc3c(N)ncnc32)[C@H](O)[C@@H]1O | 37.1 | 23.4 |
| CC(C=C[C@@]1(O)C(C)=CC(=O)CC1(C)C)=CC(=O)O [CAS_14375-45-2] | 56.1 | – |

Continued, values first:

| Ki (Adenosine receptor A3) [nM] | Ki (Adenosine receptor A1) [nM] | Structure (SMILES) |
| --- | --- | --- |
| – | 74 | CNC(=O)[C@H]1O[C@@H](n2cnc3c(NCc4cccc(I)c4)nc(Cl)nc32)[C@H](O)[C@@H]1O [2-Cl-IB-MECA] |
| 6.79 | 6.83 | Nc1ncnc2c1ncn2[C@@H]1O[C@H](C(=O)NCc2ccccc2)[C@@H](O)[C@H]1O [B-NECA] |
| 1.13 | 0.72 | CC(Cc1ccccc1)Nc1ncnc2c1ncn2C1OC(CO)C(O)C1O (stereo unspecified) [R-N6-(2-phenylisopropyl) adenosine] |
| 2.8 | 16.3 | CNC(=O)C1OC(n2cnc3c(NCc4cccc(I)c4)ncnc32)C(O)C1O (stereo unspecified) [3,4-dihydroxy-5-(6-{[(3-iodophenyl)methyl]amino}-9H-purin-9-yl)-N-methyloxolane-2-carboxamide] |
